Measurements published in publication PMC10950897, “VCF1 is a p97/VCP cofactor promoting recognition of ubiquitylated p97-UFD1-NPL4 substrates” (Nature Communications, 2024).

Columns and labels:
[1] = test system: Ub(G76V)-GFP, U2OS cells; assay: QIBC of Ub(G76V)-GFP in cells overexpressing FLAG-tagged proteins; format: cell-based, human; settings: FLAG-tagged plasmids, FLAG-positive cells
Method: U2OS (catalog no. HTB-96) cells were obtained from ATCC. HEK293-EBNA1-6E cells were a kind gift from Yves Durocher (National Research Council Canada, Montreal, Canada). All mammalian cell lines were cultured under standard conditions at 37 °C and 5% CO2 in DMEM (Thermo) supplemented with 10% FBS (v/v) and penicillin-streptomycin (Thermo). Recombination cloning-compatible U2OS cells were generated using the Flp-In T-Rex Core Kit (Thermo) according to the manufacturer’s instructions and maintained under selection using Blasticidin (Invivogen) and Zeocin (Thermo). To generate cell lines stably expressing GFP-VCF1, U2OS Flp-In T-Rex cells (Thermo) were co-transfected with GFP-VCF1 constructs and pOG44 (Thermo) plasmids, followed by selection with Hygromycin (Invitrogen). Single clones were carefully screened for uniform expression of ectopic GFP-VCF1 at low levels and maintained under selection with Blasticidin and Hygromycin. To induce GFP-VCF1 expression, cells were treated with Doxycycline (DOX) (0.5 µg/ml) for 16 h. U2OS cell lines stably expressing Ub(G76V)-GFP or Ub(G76V)-GFP-20AA were described previously. A U2OS cell line stably expressing Ub(G76V)-GFP-NES was generated under G418 (Invivogen) selection. […]
Mammalian cells grown on coverslips were fixed in formalin buffer (VWR) for 15 min at room temperature (RT). […] Quantitative image-based cytometry (QIBC) was performed as described. […]

[2] = test system: p97 (His6-p97 Y143A); assay: SPR: binding to immobilized His6-p97 Y143A mutant; design: species or system human; settings: full-length VCF1 up to 100 nM
Method: Surface Plasmon Resonance (SPR)
All SPR experiments were performed at 25 °C on a Biacore T200 instrument equipped with CM5 or CM7 sensor chips (Cytiva, Uppsala, Sweden). SPR running buffers and amine-coupling reagents (N-ethyl-N’-(3-dimethlyaminoproply)carbodiimide (EDC), N-hydroxysuccinimide (NHS), and ethanolamine HCl) were purchased from Cytiva. 1x PBS-P (11.9 mM NaH2PO4-Na2HPO4, pH 7.4; 137 mM NaCl; 2.7 mM KCl; 0.005% surfactant P20) supplemented with 0.5 mM TCEP was used as running buffer for the immobilization and the binding experiments with Strep-HA-VCF1 full-length proteins. For the VCF1 C-terminal peptide binding studies, 2% DMSO was additionally included in the running buffer. Eight solvent correction samples ranging from 1.5% DMSO to 2.8% DMSO prepared in either PBS-P, 0.5 mM TCEP or Tris-based buffer were used to correct buffer/DMSO mismatches. […] The dissociation rate of the p97-VCF1 complexes was monitored for 400 s. […] Binding experiments were measured in triplicates. […] The equilibrium dissociation contants, Kd, were determined by plotting the equilibrium responses levels (Req) against […] and fitting to a steady-state model.

Substance: VCF1: human FAM104A isoform 1, 186 amino acids (UniProt Q969W3); recombinant Strep-HA-tagged
- effect of overexpression on Ub(G76V)-GFP [1]: stabilized Ub(G76V)-GFP similar to the effect of elevating NPL4 or p47 expression levels
- binding to p97 Y143A (in words) [2]: did not show detectable binding affinity
- binding to p97 Y143A (in words) ([2]; listed as Strep-HA-VCF1 WT): no dose-dependent response was observed
